Data reported in the supplement of paper PMC13380429.

What was measured:
Details in all cases: 72 h
[1] = tested on: Calu-3; experiment: cell viability relative to DMSO; higher = less toxic
[2] = tested on: Vero E6; experiment: as above
[3] = tested on: HepG2; experiment: as above
[4] = tested on: Caco-2; experiment: as above
[5] = tested on: U2OS; experiment: as above
[6] = tested on: Calu-3; experiment: relative viability EC50 (midpoint between 100% and the lowest measured viability); higher = less toxic
[7] = tested on: Vero E6; experiment: as above
[8] = tested on: HepG2; experiment: as above
[9] = tested on: Caco-2; experiment: as above
[10] = tested on: U2OS; experiment: as above
[11] = tested on: Calu-3; experiment: drug sensitivity score (DSS) for viability; higher = more toxic; extreme values may be limits of the assay
[12] = tested on: Vero E6; experiment: as above
[13] = tested on: HepG2; experiment: as above
[14] = tested on: Caco-2; experiment: as above
[15] = tested on: U2OS; experiment: as above

| SMILES | cell viability ([1]; 1 nM) | cell viability ([1]; 10 nM) | cell viability ([1]; 100 nM) | cell viability ([1]; 1000 nM) | cell viability ([1]; 10000 nM) | cell viability ([2]; 1 nM) | cell viability ([2]; 10 nM) | cell viability ([2]; 100 nM) | cell viability ([2]; 1000 nM) | cell viability ([2]; 10000 nM) | cell viability ([3]; 1 nM) | cell viability ([3]; 10 nM) | cell viability ([3]; 100 nM) | cell viability ([3]; 1000 nM) | cell viability ([3]; 10000 nM) | cell viability ([4]; 1 nM) | cell viability ([4]; 10 nM) | cell viability ([4]; 100 nM) | cell viability ([4]; 1000 nM) | cell viability ([4]; 10000 nM) | cell viability ([5]; 1 nM) | cell viability ([5]; 10 nM) | cell viability ([5]; 100 nM) | cell viability ([5]; 1000 nM) | cell viability ([5]; 10000 nM) | relative viability EC50 [6] | relative viability EC50 [7] | relative viability EC50 [8] | relative viability EC50 [9] | relative viability EC50 [10] | drug sensitivity score [11] | drug sensitivity score [12] | drug sensitivity score [13] | drug sensitivity score [14] | drug sensitivity score [15] |
| --- | --- | --- | --- | --- | --- | --- | --- | --- | --- | --- | --- | --- | --- | --- | --- | --- | --- | --- | --- | --- | --- | --- | --- | --- | --- | --- | --- | --- | --- | --- | --- | --- | --- | --- | --- |
| NC(=O)c1ccccc1O [salicylamide] | 105% | 105% | 92% | 100% | 104% | 98% | 93.9% | 102% | 97.9% | 93% | 98.5% | 99.6% | 98.5% | 91.2% | 99.7% | 93.6% | 99% | 78.2% | 84.8% | 79.2% | 97.9% | 108% | 95.6% | 102% | 98.9% | > 10 µM | > 10 µM | > 10 µM | > 10 µM | > 10 µM | 0 | 0 | 0 | 5.7 | 0 |
| COCCNC(=O)Cn1cnc([N+](=O)[O-])n1 [sanazole] | 96.7% | 106% | 97.6% | 102% | 103% | 99.5% | 99.1% | 95.7% | 101% | 96.6% | 103% | 93.3% | 102% | 95.7% | 97.6% | 93% | 99.6% | 95.9% | 93.9% | 93.4% | 98.3% | 104% | 96.7% | 97.7% | 95.8% | > 10 µM | > 10 µM | > 10 µM | > 10 µM | > 10 µM | 0 | 0 | 0 | 0 | 0 |
| CC(=O)Nc1ccc(S(=O)(=O)Nc2ccc([N+](=O)[O-])cc2)cc1 [sulfanitran] | 96.5% | 105% | 103% | 89% | 98.9% | 101% | 94.5% | 97% | 97.1% | 104% | 104% | 94.5% | 105% | 95% | 109% | 99% | 96.6% | 97.9% | 92.9% | 99.1% | 97.6% | 106% | 98.7% | 105% | 102% | > 10 µM | > 10 µM | > 10 µM | > 10 µM | > 10 µM | 0 | 0 | 0 | 0 | 0 |
| O[C@H]1[C@H]2[C@H](O)CCCN2C[C@H]1O [swainsonine] | 97.5% | 104% | 91.1% | 88.7% | 87.1% | 112% | 97% | 97.5% | 83.7% | 88.1% | 110% | 96.4% | 90.9% | 88.9% | 94.2% | 79% | 95.1% | 86.8% | 81.5% | 81.7% | 95.8% | 103% | 98.5% | 105% | 92.3% | > 10 µM | > 10 µM | > 10 µM | > 10 µM | > 10 µM | 1.3 | 2 | 0.5 | 0 | 0 |
| COc1cc2c(cc1OC)CN(CCc1ccc(NC(=O)c3cc(OC)c(OC)cc3NC(=O)c3cnc4ccccc4c3)cc1)CC2 [tariquidar] | 93.5% | 94.6% | 84% | 101% | 103% | 105% | 94.5% | 96.8% | 96.4% | 107% | 102% | 90.9% | 108% | 93.5% | 105% | 89.2% | 94.2% | 99.8% | 95.3% | 108% | 94.9% | 100% | 97.2% | 103% | 103% | > 10 µM | > 10 µM | > 10 µM | > 10 µM | > 10 µM | 0 | 0 | 0 | 0 | 0 |
| CC(C)(C)c1ccc(C(O)CCCN2CCC(C(O)(c3ccccc3)c3ccccc3)CC2)cc1 (stereo not given) [terfenadine] | 97.6% | 115% | 97.3% | 104% | 106% | 107% | 97.3% | 109% | 101% | 100% | 108% | 117% | 103% | 96.9% | 99.8% | 77.3% | 100% | 76.3% | 101% | 80.2% | 98.1% | 101% | 96.5% | 99.7% | 97.8% | > 10 µM | > 10 µM | > 10 µM | > 10 µM | > 10 µM | 0 | 0 | 0 | 2.4 | 0 |
| O=C1CCC(N2C(=O)c3ccccc3C2=O)C(=O)N1 (stereo not given) [thalidomide] | 89.8% | 92.1% | 92.2% | 93.6% | 97.9% | 103% | 102% | 93.9% | 97.3% | 96.1% | 102% | 99.8% | 89.4% | 99.1% | 97.8% | 89.6% | 91.9% | 90.9% | 94.7% | 94.9% | 101% | 95.4% | 100% | 95% | 98.6% | > 10 µM | > 10 µM | > 10 µM | > 10 µM | > 10 µM | 0 | 0 | 0 | 0 | 0 |
